Laboratory results from article PMC9506414, “Novel 2,6,9-Trisubstituted Purines as Potent CDK Inhibitors Alleviating Trastuzumab-Resistance of HER2-Positive Breast Cancers” (Pharmaceuticals, 2022).
Where two headings read alike, the source gives them in different places.

Columns and labels:
CDK12/CyclinK = CDK12/CyclinK (Homo sapiens, UniProt Q9NYV4); experiment: In vitro CDK12/cyclinK kinase assay; format: biochemical; parameters: purchased Reaction Biology Corp. (CRO that ran the assay)
Method: In vitro CDK12/cyclinK assays for all compounds and in vitro kinome-wide inhibition profiling of 30d at 10 μM were performed by a CRO company (Reaction Biology Corp., San Diego, CA, USA).

SK-Br3 cells = experiment: Antiproliferation assay (Cell-titer Glo, 72 h); format: cell-based; settings: Homo sapiens, SK-BR-3; 72 h; means and standard deviations from three independent assays; read-out: SK-Br3 (GI50/μM)
Method: (§1) Breast-cancer cell lines (SK-Br3, HCC-1954) were purchased from Korea Cell Line Bank (Seoul, Korea) and were cultured in RPMI medium supplemented with 10% FBS and penicillin/streptomycin (Welgene, Seoul, Korea). All cell lines were maintained at 37 °C in a cell incubator in the presence of 5% CO2.
(§2) Breast-cancer cells in culture media (100 μL volume/well, 5000 SK-Br3 cells/well, 1000 HCC-1954 cells/well) were seeded in tissue culture-treated 96-well plates, and incubated at a cell incubator for 24 h. Serially diluted compounds (3-fold, 10 point from 10 mM, duplicated) were pre-plated and 500 nL of compound solutions were pin-transferred to the cells in the assay plates using pintool system (JANUS liquid handler, PerkinElmer, Waltham, MA, USA) and incubated at a cell incubator for 72 h. Cell-titer Glo^TM reagent (50 μL, Promega Corp., Madison, WI, USA) was added to each well, and the luminescence signal was read using an Envision^TM plate reader (PerkinElmer, Waltham, MA, USA). The titration curve fitting and IC50 values were generated using Prism 7.0 s/w (GraphPad, San Diego, CA, USA).

HCC1954 cells = experiment: Antiproliferation assay (Cell-titer Glo, 72 h); format: cell-based; settings: Homo sapiens, 72 h, means and standard deviations from three independent assays, read-out: HCC1954 (GI50/μM)
Method: as §1, §2

[1] = Tables 1-4, read-out: CDK12/CyclinK (IC50/μM)

Sequence of CDK12/CyclinK (Q9NYV4 whole entry): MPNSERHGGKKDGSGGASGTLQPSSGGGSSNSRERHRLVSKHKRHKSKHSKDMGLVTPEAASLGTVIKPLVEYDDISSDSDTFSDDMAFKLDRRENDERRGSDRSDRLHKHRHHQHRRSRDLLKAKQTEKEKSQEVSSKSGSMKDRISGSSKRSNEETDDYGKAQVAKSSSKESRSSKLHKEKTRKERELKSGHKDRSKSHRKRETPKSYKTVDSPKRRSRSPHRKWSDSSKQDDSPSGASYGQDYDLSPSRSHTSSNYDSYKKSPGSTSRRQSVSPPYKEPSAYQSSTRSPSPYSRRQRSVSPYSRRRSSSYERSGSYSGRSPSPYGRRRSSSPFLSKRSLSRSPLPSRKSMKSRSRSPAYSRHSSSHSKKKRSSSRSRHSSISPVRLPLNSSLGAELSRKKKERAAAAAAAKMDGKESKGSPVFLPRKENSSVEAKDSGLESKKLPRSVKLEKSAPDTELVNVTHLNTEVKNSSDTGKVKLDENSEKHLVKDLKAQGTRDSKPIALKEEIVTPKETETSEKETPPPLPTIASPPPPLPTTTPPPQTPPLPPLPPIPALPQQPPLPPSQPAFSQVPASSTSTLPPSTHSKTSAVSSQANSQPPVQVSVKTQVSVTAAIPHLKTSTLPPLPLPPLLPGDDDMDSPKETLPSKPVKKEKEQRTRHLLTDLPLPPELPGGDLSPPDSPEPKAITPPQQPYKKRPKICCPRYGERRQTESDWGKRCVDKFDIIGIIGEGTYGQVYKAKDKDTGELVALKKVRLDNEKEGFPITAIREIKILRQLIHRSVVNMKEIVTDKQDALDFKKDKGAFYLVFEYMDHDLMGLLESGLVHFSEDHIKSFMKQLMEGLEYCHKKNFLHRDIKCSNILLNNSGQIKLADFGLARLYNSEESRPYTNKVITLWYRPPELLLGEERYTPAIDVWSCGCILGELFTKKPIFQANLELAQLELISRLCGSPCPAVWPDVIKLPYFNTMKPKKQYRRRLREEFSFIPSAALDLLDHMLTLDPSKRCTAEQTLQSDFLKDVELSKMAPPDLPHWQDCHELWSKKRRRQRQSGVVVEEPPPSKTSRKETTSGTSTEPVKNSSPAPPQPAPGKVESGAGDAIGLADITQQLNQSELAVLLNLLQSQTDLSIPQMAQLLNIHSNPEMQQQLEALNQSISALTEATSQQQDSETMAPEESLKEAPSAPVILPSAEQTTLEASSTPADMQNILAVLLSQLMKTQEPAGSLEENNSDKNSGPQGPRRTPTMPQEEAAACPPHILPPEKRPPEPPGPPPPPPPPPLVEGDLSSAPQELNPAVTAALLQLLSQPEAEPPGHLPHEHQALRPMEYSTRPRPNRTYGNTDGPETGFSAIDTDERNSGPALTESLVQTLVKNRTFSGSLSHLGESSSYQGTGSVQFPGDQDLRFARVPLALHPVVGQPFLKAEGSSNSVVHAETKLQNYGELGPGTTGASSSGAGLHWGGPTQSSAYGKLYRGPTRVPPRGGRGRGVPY
Sequence of CDK12/CyclinK (O75909 whole entry partner): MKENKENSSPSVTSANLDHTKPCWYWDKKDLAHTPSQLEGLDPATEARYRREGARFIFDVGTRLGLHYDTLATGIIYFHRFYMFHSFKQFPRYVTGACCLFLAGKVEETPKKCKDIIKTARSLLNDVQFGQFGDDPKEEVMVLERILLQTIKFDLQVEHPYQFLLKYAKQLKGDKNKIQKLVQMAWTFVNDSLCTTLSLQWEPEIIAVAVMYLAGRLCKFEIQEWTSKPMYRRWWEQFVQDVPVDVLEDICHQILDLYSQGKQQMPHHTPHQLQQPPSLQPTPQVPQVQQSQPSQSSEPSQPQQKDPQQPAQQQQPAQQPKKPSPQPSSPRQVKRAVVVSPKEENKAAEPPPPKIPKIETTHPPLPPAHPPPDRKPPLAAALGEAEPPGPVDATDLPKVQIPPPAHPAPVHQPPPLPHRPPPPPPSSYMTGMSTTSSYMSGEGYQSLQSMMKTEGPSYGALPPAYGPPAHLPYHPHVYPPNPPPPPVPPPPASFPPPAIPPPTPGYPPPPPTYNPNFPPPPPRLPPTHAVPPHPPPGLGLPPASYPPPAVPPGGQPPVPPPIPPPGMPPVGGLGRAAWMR

SMILES | IC50 (CDK12/CyclinK; [1]) | GI50 (SK-Br3 cells) | GI50 (HCC1954 cells) | IC50 (CDK12/CyclinK; read-out: CDK12/cyclinK IC50) | IC50 (CDK12/CyclinK; Table 5, means and standard deviations from three independent assays, read-out: CDK12/CyclinK (IC50/μM))
CC(C)n1cnc2c(NCc3ccc(-c4cccnc4)nc3)nc(-c3ccc(NCCO)nc3)nc21 [Compound 22a, 2-((5-(6-(([2,3′-Bipyridin]-5-ylmethyl)amino)-9-isopropyl-9H-purin-2-yl)pyridin-2-yl)amino)ethan-1-ol] | 0.053 µM | 0.262 ± 0.021 µM | 0.174 ± 0.019 µM |  | 
CC(C)n1cnc2c(NCc3ccc(-c4cccnc4)nc3)nc(-c3ccc(NCCCO)nc3)nc21 [Compound 22b, 3-((5-(6-(([2,3′-Bipyridin]-5-ylmethyl)amino)-9-isopropyl-9H-purin-2-yl)pyridin-2-yl)amino)propan-1-ol] | 0.304 µM | 1.18 ± 0.118 µM | 0.977 ± 0.07 µM |  | 
CC(C)n1cnc2c(NCc3ccc(-c4cccnc4)nc3)nc(-c3ccnc(NCCO)c3)nc21 [Compound 22c, 2-((4-(6-(([2,3′-Bipyridin]-5-ylmethyl)amino)-9-isopropyl-9H-purin-2-yl)pyridin-2-yl)amino)ethan-1-ol] | 0.086 µM | 0.473 ± 0.087 µM | 0.433 ± 0.052 µM |  | 
CC(C)n1cnc2c(NCc3ccc(-c4cccnc4)nc3)nc(-c3ccnc(NCCCO)c3)nc21 [Compound 22d, 3-((4-(6-(([2,3′-Bipyridin]-5-ylmethyl)amino)-9-isopropyl-9H-purin-2-yl)pyridin-2-yl)amino)propan-1-ol] | 0.113 µM | 0.48 ± 0.026 µM | 0.387 ± 0.037 µM |  | 
Cc1cc(N)n(-c2nc(NCc3ccc(-c4cccnc4)nc3)c3ncn(C(C)C)c3n2)n1 [Compound 24, N-([2,3′-Bipyridin]-5-ylmethyl)-2-(5-amino-3-methyl-1H-pyrazol-1-yl)-9-isopropyl-9H-purin-6-amine] | 2.35 µM | 5.16 ± 0.365 µM | 3.44 ± 0.177 µM |  | 
CC(C)n1cnc2c(NCc3ccc(-c4cccnc4)nc3)nc(-n3cc(CO)nn3)nc21 [Compound 26a, (1-(6-(([2,3′-Bipyridin]-5-ylmethyl)amino)-9-isopropyl-9H-purin-2-yl)-1H-1,2,3-triazol-4-yl)methanol] | 2.05 µM | 13.3 ± 3.15 µM | 9.97 ± 1.86 µM |  | 
CC(C)n1cnc2c(NCc3ccc(-c4cccnc4)nc3)nc(-n3cc(CCO)nn3)nc21 [Compound 26b, 2-(1-(6-(([2,3′-Bipyridin]-5-ylmethyl)amino)-9-isopropyl-9H-purin-2-yl)-1H-1,2,3-triazol-4-yl)ethan-1-ol] | 0.539 µM | 8.3 ± 0.882 µM | 6.16 ± 0.429 µM |  | 
CCn1cnc2c(NCc3ccc(-c4cccnc4)nc3)nc(-c3cccnc3)nc21 [Compound 28a, N-([2,3′-Bipyridin]-5-ylmethyl)-9-ethyl-2-(pyridin-3-yl)-9H-purin-6-amine] | 0.016 µM | 0.215 ± 0.053 µM | 0.142 ± 0.014 µM | < 0.03 µM | 
c1cncc(-c2ccc(CNc3nc(-c4cccnc4)nc4c3ncn4C3CCCC3)cn2)c1 [Compound 28b, N-([2,3′-Bipyridin]-5-ylmethyl)-9-cyclopentyl-2-(pyridin-3-yl)-9H-purin-6-amine] | 0.293 µM | 2.6 ± 0.31 µM | 2.14 ± 0.176 µM |  | 
CN(C)C/C=C/C(=O)Nc1ccc(C(=O)N2CCC[C@@H](Nc3ncc(Cl)c(-c4c[nH]c5ccccc45)n3)C2)cc1 [THZ531, reference compound] |  | 0.03 ± 0.006 µM | 0.195 ± 0.05 µM |  | 0.051 ± 0.007 µM
